Target: METTL3/METTL14 (Homo sapiens, UniProt Q86U44)
Assay: METTL3-14 standard enzyme assay (3H-SAM flashplate)
Details: Table 4; METTL3 biochemical assay
Protocol: METTL3-14 Standard Enzyme Assay
Assays were performed in a 25 μl-volume in 384-well V-bottom polypropylene microplates (Greiner Bio-One, cat. No. 781280) at ambient temperature. Optimized 1× assay buffer was 20 mM HEPES pH 7.5, 50 mM KCl, 250 μM MgCl2, 1 mM DTT, 0.01% Tween, 0.01% BSG, 0.004 U/μl RNAseOUT (cat. No. 10777019, ThermoFisher Scientific, Waltham, MA). For compound screening METTL3/METTL14 (final concentration, f.c.=2.5 nM) was added using a Multidrop Combi (ThermoFisher Scientific, Waltham, MA) and preincubated for 5 min. Reactions were started by adding 3′ biotinylated RNA (UCUGGACUAAA-biotin) (f.c.=100 nM) and 3H-SAM (f.c.=100 nM) substrates. Reactions proceeded for 30 minutes and were quenched with excess non-radioactive SAM (f.c.=15 μM). The reactions were then transferred to streptavidin-coated flashplates and incubated for 2 hours at 25° C. Following two washing cycles with 0.1% Tween-20, the plates were sealed and read on a TopCount (PerkinElmer, Waltham, MA) plate-based scintillation counter. For determination of kinetic parameters, reaction times were optimized so that measurements were taken during the initial velocity phase of the reaction.

Sequence of METTL3/METTL14 (Q86U44 whole entry, species assumed): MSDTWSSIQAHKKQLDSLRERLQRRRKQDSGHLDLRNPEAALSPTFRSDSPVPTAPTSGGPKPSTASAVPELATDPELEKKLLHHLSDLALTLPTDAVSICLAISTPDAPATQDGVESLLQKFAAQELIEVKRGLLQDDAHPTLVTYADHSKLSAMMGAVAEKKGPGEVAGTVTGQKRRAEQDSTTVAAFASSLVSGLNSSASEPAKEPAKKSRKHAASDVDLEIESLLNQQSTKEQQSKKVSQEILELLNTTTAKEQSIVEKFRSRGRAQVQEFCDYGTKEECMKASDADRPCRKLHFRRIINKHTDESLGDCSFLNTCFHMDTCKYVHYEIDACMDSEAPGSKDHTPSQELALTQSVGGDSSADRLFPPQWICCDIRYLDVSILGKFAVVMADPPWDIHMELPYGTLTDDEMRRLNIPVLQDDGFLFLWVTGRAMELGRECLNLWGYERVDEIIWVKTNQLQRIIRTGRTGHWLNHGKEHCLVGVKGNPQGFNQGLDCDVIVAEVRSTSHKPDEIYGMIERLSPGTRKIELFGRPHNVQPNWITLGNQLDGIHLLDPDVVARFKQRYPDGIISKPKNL
Sequence of METTL3/METTL14 (Q9HCE5 whole entry partner, species assumed): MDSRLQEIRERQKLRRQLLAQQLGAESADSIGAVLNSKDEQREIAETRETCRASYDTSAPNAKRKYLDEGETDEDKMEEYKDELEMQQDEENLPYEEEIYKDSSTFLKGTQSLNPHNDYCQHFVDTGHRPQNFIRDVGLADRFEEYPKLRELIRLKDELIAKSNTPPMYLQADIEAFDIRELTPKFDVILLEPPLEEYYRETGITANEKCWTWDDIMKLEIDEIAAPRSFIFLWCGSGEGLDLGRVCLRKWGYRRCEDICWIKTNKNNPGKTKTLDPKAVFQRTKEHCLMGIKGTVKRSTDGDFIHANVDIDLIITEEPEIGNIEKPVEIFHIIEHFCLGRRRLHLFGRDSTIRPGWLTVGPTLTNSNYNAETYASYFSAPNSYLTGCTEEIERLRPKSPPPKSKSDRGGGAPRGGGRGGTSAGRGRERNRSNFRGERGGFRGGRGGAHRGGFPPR

| Structure (SMILES) | IC50 [µM] |
| --- | --- |
| Cn1ccc(-c2cn([C@@H]3O[C@H](C(=O)Nc4ccc5c(c4)NC(=O)CC5)[C@@H](O)[C@H]3O)c3ncnc(N)c23)n1 [Compound I-123] | 0.1 to 1 |
| Cn1ccc(-c2cn([C@@H]3O[C@H](C(=O)Nc4ccc(C(=O)N5CCCCC5)cc4)[C@@H](O)[C@H]3O)c3ncnc(N)c23)n1 [Compound I-135] | 0.1 to 1 |
| Cn1ccc(-c2cn([C@@H]3O[C@H](C(=O)Nc4ccc(S(=O)(=O)N5CCOCC5)cc4)[C@@H](O)[C@H]3O)c3ncnc(N)c23)n1 [Compound I-107] | 0.1 to 1 |
| Cn1ccc(-c2cn([C@@H]3O[C@H](C(=O)Nc4cccc5cnccc45)[C@@H](O)[C@H]3O)c3ncnc(N)c23)n1 [Compound I-69] | ≥ 1 |
| CC(=O)Nc1ccccc1NC(=O)[C@H]1O[C@@H](n2cc(-c3ccn(C)n3)c3c(N)ncnc32)[C@H](O)[C@@H]1O [Compound I-130] | 0.1 to 1 |
| CC(CCc1ccccc1)NC(=O)[C@H]1O[C@@H](n2cc(-c3ccn(C)n3)c3c(N)ncnc32)[C@H](O)[C@@H]1O (stereo partly drawn) [Compound I-137] | 0.1 to 1 |
| CC(O)CNC(=O)[C@H]1O[C@@H](n2cc(-c3ccn(C)n3)c3c(N)ncnc32)[C@H](O)[C@@H]1O (stereo partly drawn) [Compound I-81] | ≥ 1 |
| Cn1ccc(-c2cn([C@@H]3O[C@H](C(=O)NCCc4ccc(Cl)cc4)[C@@H](O)[C@H]3O)c3ncnc(N)c23)n1 [Compound I-111] | 0.1 to 1 |
| Cn1ccc(-c2cn([C@@H]3O[C@H](C(=O)Nc4ccc(CN5CCS(=O)(=O)CC5)cc4)[C@@H](O)[C@H]3O)c3ncnc(N)c23)n1 [Compound I-125] | 0.1 to 1 |
| Cn1ccc(-c2cn([C@@H]3O[C@H](C(=O)Nc4ccncc4Cl)[C@@H](O)[C@H]3O)c3ncnc(N)c23)n1 [Compound I-122] | 0.1 to 1 |
| CC(CNC(=O)[C@H]1O[C@@H](n2cc(-c3ccn(C)n3)c3c(N)ncnc32)[C@H](O)[C@@H]1O)c1ccccc1 (stereo partly drawn) [Compound I-101] | 0.1 to 1 |
| COCC(C)NC(=O)[C@H]1O[C@@H](n2cc(-c3ccn(C)n3)c3c(N)ncnc32)[C@H](O)[C@@H]1O (stereo partly drawn) [Compound I-80] | ≥ 1 |
| Cn1ccc(-c2cn([C@@H]3O[C@H](C(=O)NC4CCC(O)CC4)[C@@H](O)[C@H]3O)c3ncnc(N)c23)n1 (stereo partly drawn) [Compound I-103] | 0.1 to 1 |
| CC(C)c1nnc(NC(=O)[C@H]2O[C@@H](n3cc(-c4ccn(C)n4)c4c(N)ncnc43)[C@H](O)[C@@H]2O)s1 [Compound I-70] | ≥ 1 |
| Cn1ccc(-c2cn([C@@H]3O[C@H](C(=O)Nc4ccc(Br)c(Cl)c4)[C@@H](O)[C@H]3O)c3ncnc(N)c23)n1 [Compound I-63] | ≥ 1 |
| Cn1ccc(-c2cn([C@@H]3O[C@H](C(=O)N4CCc5ccccc54)[C@@H](O)[C@H]3O)c3ncnc(N)c23)n1 [Compound I-99] | 0.1 to 1 |
| Cn1ccc(-c2cn([C@@H]3O[C@H](C(=O)N[C@H](CO)c4ccccc4)[C@@H](O)[C@H]3O)c3ncnc(N)c23)n1 [Compound I-87] | ≥ 1 |
| Cc1nc2cc(NC(=O)[C@H]3O[C@@H](n4cc(-c5ccn(C)n5)c5c(N)ncnc54)[C@H](O)[C@@H]3O)ccc2o1 [Compound I-141] | 0.01 to 0.1 |
| COc1ccccc1CNC(=O)[C@H]1O[C@@H](n2cc(-c3ccn(C)n3)c3c(N)ncnc32)[C@H](O)[C@@H]1O [Compound I-97] | 0.1 to 1 |
| Cn1ccc(-c2cn([C@@H]3O[C@H](C(=O)Nc4cc(Cl)cc(Cl)c4)[C@@H](O)[C@H]3O)c3ncnc(N)c23)n1 [Compound I-67] | ≥ 1 |
| Cn1ccc(-c2cn([C@@H]3O[C@H](C(=O)Nc4cccc(C#N)c4)[C@@H](O)[C@H]3O)c3ncnc(N)c23)n1 [Compound I-105] | 0.1 to 1 |
| Cc1ccc(NC(=O)[C@H]2O[C@@H](n3cc(-c4ccn(C)n4)c4c(N)ncnc43)[C@H](O)[C@@H]2O)cc1Cl [Compound I-71] | ≥ 1 |
| Cc1ccc(C(N)=O)cc1NC(=O)[C@H]1O[C@@H](n2cc(-c3ccn(C)n3)c3c(N)ncnc32)[C@H](O)[C@@H]1O [Compound I-92] | ≥ 1 |
| Cn1ccc(-c2cn([C@@H]3O[C@H](C(=O)Nc4cnccn4)[C@@H](O)[C@H]3O)c3ncnc(N)c23)n1 [Compound I-91] | ≥ 1 |

Reference: patent US20240051985A1, “METTL3 MODULATORS” (ACCENT THERAPEUTICS, INC., priority 2020, published 2024)
